Measured values: patent EP0319030A1, “Aminopropanol derivatives of 1,4:3,6-dianhydro-hexitol nitrates, processes for their preparation and their use as medicaments” (Heinrich Mack Nachf., priority 1987, dated 1989)
Marks after values point to notes of the source that are not given here.

Legend:
Format in all cases: in vivo
rats = assay: Survival rate after acute coronary ligature, method of I. Lepran et al.; details: for Number of rats surviving after an acute coronary ligature, 24 hours / Number of rats surviving after an acute coronary ligature, 7 days: control 21/80; for Number of rats surviving after an acute coronary ligature, 60 minutes: control 23/80
From the text: (§1) In particular, they have a pronounced cardiovascular action. On isolated strips of veins from dogs, they act against the K⁺-induced contraction in a lower concentration than on aorta strips. On isolated hearts from guinea pigs, they increase coronary flow as a function of the dose. On anesthetized rats, they prevent lypressin coronary spasm as a function of the dose and significiantly increase the survival rate of rats following acute cardiac infarction. On normotensive conscious dogs, they lower the systolic blood pressure for a period of 6-8 hours after oral administration. On artifically respirated anesthetized, thoraxotomized dogs, they reduce the mean arterial pressure, the left ventricular systolic pressure, the left ventricular end diastolic pressure and the pressure in the Arteria pulmonalis and reduce the peripheral vascular resistance. In contrast to the known organic nitrate esters, they also lead to a long-lasting reduction in the systolic blood pressure of spontaneously hypertensive rats. Such an action profile is not known for any of the substances of similar structure which have already been described.

conscious beagle dogs = assay: Systolic blood pressure and heart rate following peroral administration; details: mean ± SEM
From the text: as §1

anesthetized rat = assay: Lypressin-induced T-wave increase in the ECG (lypressin coronary spasm), method of M. Leitold et al.; details: for ED50: Rattus norvegicus, po, 0.5 h, perorally 30 minutes before the lypressin injection, dose column in mg/kg; for Duration of action at the ED50 dose: perorally at various times before the lypressin injection
From the text: as §1

anesthetized dogs = assay: Cardiovascular actions following intra-venous administration, opened thorax and artificial respiration; details: opened thorax, artificial respiration
From the text: as §1

Mice = assay: Peroral tolerance in mice
From the text: Set forth below is data obtained on the compounds of Examples 17, 19 and 20 that illustrates the pharmacological action of the compounds of the present invention.

[1] = 30.0 mg/kg orally 5 minutes before ligature
[2] = 100.0 mg/kg orally 5 minutes before ligature

COc1ccccc1N1CCN(CC(O)CO[C@H]2CO[C@H]3[C@@H]2OC[C@H]3O[N+](=O)[O-])CC1 (stereo partly drawn) [Example 17, 2-O-<3-[4-(2-Methoxyphenyl)-piperazinyl]-2-hydroxypropyl>-isosorbide-5-nitrate]
Number of rats surviving after an acute coronary ligature, 24 hours (rats; [1]): 17/20**
Number of rats surviving after an acute coronary ligature, 7 days (rats; [1]): 17/20**
Number of rats surviving after an acute coronary ligature, 60 minutes (rats; [1]): 17/20**
HR (heart rate), Action of substance after 1 hours (conscious beagle dogs; 6.0 mg/kg peroral): 101 ± 17 Bts/M
HR (heart rate), Action of substance after 2 hours (conscious beagle dogs; 6.0 mg/kg peroral): 110 ± 16 Bts/M
HR (heart rate), Action of substance after 4 hours (conscious beagle dogs; 6.0 mg/kg peroral): 89 ± 8 Bts/M
HR (heart rate), Action of substance after 6 hours (conscious beagle dogs; 6.0 mg/kg peroral): 89 ± 5 Bts/M
HR (heart rate), Action of substance after 8 hours (conscious beagle dogs; 6.0 mg/kg peroral): 85 ± 7 Bts/M
SBP (systolic blood pressure), Action of substance after 1 hours (conscious beagle dogs; 6.0 mg/kg peroral): 91 ± 6 mmHg
SBP (systolic blood pressure), Action of substance after 2 hours (conscious beagle dogs; 6.0 mg/kg peroral): 89 ± 4 mmHg
SBP (systolic blood pressure), Action of substance after 4 hours (conscious beagle dogs; 6.0 mg/kg peroral): 97 ± 5 mmHg
SBP (systolic blood pressure), Action of substance after 6 hours (conscious beagle dogs; 6.0 mg/kg peroral): 101 ± 5 mmHg
SBP (systolic blood pressure), Action of substance after 8 hours (conscious beagle dogs; 6.0 mg/kg peroral): 115 ± 7 mmHg
ED50 (anesthetized rat): 89.5 mg/kg
Duration of action at the ED50 dose (anesthetized rat): 2 h
CO, Action of substance (anesthetized dogs; 30 µg/kg intra-venous): 0.93 ± 0.07 l/M
CO, Change (anesthetized dogs; 30 µg/kg intra-venous): 0.07 ± 0.04 l/M
CO, Duration of action (anesthetized dogs; 30 µg/kg intra-venous): 6 ± 3 min
HR (heart rate), Action of substance (anesthetized dogs; 30 µg/kg intra-venous): 219 ± 18 Bts/M
HR (heart rate), Change (anesthetized dogs; 30 µg/kg intra-venous): 21 ± 18 Bts/M
HR (heart rate), Duration of action (anesthetized dogs; 30 µg/kg intra-venous): 6 ± 2 min
LVEDP (left ventricular enddiastolic pressure), Action of substance (anesthetized dogs; 30 µg/kg intra-venous): 6.2 ± 0.7 mmHg
LVEDP (left ventricular enddiastolic pressure), Change (anesthetized dogs; 30 µg/kg intra-venous): 0.2 ± 0.03 mmHg
LVEDP (left ventricular enddiastolic pressure), Duration of action (anesthetized dogs; 30 µg/kg intra-venous): 2.2 ± 1.3 min
LVSP (left ventricular systolic blood pressure), Action of substance (anesthetized dogs; 30 µg/kg intra-venous): 131 ± 9 mmHg
LVSP (left ventricular systolic blood pressure), Change (anesthetized dogs; 30 µg/kg intra-venous): 19 ± 6 mmHg
LVSP (left ventricular systolic blood pressure), Duration of action (anesthetized dogs; 30 µg/kg intra-venous): 5 ± 3 min
MAP (mean arterial blood pressure), Action of substance (anesthetized dogs; 30 µg/kg intra-venous): 83 ± 1 mmHg
MAP (mean arterial blood pressure), Change (anesthetized dogs; 30 µg/kg intra-venous): 23 ± 2 mmHg
MAP (mean arterial blood pressure), Duration of action (anesthetized dogs; 30 µg/kg intra-venous): 14 ± 1 min
PAP, Action of substance (anesthetized dogs; 30 µg/kg intra-venous): 17.0 ± 4 mmHg
PAP, Change (anesthetized dogs; 30 µg/kg intra-venous): 1.3 ± 0.5 mmHg
PAP, Duration of action (anesthetized dogs; 30 µg/kg intra-venous): 2 ± 0.3 min
SV, Action of substance (anesthetized dogs; 30 µg/kg intra-venous): 52 ± 0.4 mL/s
SV, Change (anesthetized dogs; 30 µg/kg intra-venous): 0.4 ± 0.2 mL/s
SV, Duration of action (anesthetized dogs; 30 µg/kg intra-venous): 2 ± 0.2 min
TPR (total peripheral vascular resistance), Action of substance (anesthetized dogs; 30 µg/kg intra-venous): 65 ± 12 mmHg/ml
TPR (total peripheral vascular resistance), Change (anesthetized dogs; 30 µg/kg intra-venous): 23 ± 4 mmHg/ml
TPR (total peripheral vascular resistance), Duration of action (anesthetized dogs; 30 µg/kg intra-venous): > 14 min
dp/dtmax (maximum rate of increase in the left ventricular pressure), Action of substance (anesthetized dogs; 30 µg/kg intra-venous): 3144 ± 166 mmHg/s
dp/dtmax (maximum rate of increase in the left ventricular pressure), Change (anesthetized dogs; 30 µg/kg intra-venous): 424 ± 95 mmHg/s
dp/dtmax (maximum rate of increase in the left ventricular pressure), Duration of action (anesthetized dogs; 30 µg/kg intra-venous): 8 ± 3 min
CO, Action of substance (anesthetized dogs; 300 µg/kg intra-venous): 0.684 ± 0.137 l/M
CO, Change (anesthetized dogs; 300 µg/kg intra-venous): 0.127 ± 0.046 l/M
CO, Duration of action (anesthetized dogs; 300 µg/kg intra-venous): 73 ± 40 min
HR (heart rate), Action of substance (anesthetized dogs; 300 µg/kg intra-venous): 206 ± 15 Bts/M
HR (heart rate), Change (anesthetized dogs; 300 µg/kg intra-venous): 15 ± 13 Bts/M
HR (heart rate), Duration of action (anesthetized dogs; 300 µg/kg intra-venous): 2.4 ± 1 min
LVEDP (left ventricular enddiastolic pressure), Action of substance (anesthetized dogs; 300 µg/kg intra-venous): 5.5 ± 0.8 mmHg
LVEDP (left ventricular enddiastolic pressure), Change (anesthetized dogs; 300 µg/kg intra-venous): 0.3 ± 0.1 mmHg
LVEDP (left ventricular enddiastolic pressure), Duration of action (anesthetized dogs; 300 µg/kg intra-venous): 5.6 ± 2 min
LVSP (left ventricular systolic blood pressure), Action of substance (anesthetized dogs; 300 µg/kg intra-venous): 115 ± 4 mmHg
LVSP (left ventricular systolic blood pressure), Change (anesthetized dogs; 300 µg/kg intra-venous): 39 ± 5 mmHg
LVSP (left ventricular systolic blood pressure), Duration of action (anesthetized dogs; 300 µg/kg intra-venous): 151 ± 24 min
MAP (mean arterial blood pressure), Action of substance (anesthetized dogs; 300 µg/kg intra-venous): 49 ± 3 mmHg
MAP (mean arterial blood pressure), Change (anesthetized dogs; 300 µg/kg intra-venous): 55 ± 6 mmHg
MAP (mean arterial blood pressure), Duration of action (anesthetized dogs; 300 µg/kg intra-venous): 157 ± 39 min
PAP, Action of substance (anesthetized dogs; 300 µg/kg intra-venous): 18.2 ± 5 mmHg
PAP, Change (anesthetized dogs; 300 µg/kg intra-venous): 1.5 ± 0.5 mmHg
PAP, Duration of action (anesthetized dogs; 300 µg/kg intra-venous): 1.4 ± 0.1 min
SV, Action of substance (anesthetized dogs; 300 µg/kg intra-venous): 3.7 ± 0.4 mL/s
SV, Change (anesthetized dogs; 300 µg/kg intra-venous): 0.7 ± 0.3 mL/s
SV, Duration of action (anesthetized dogs; 300 µg/kg intra-venous): 74 ± 43 min
TPR (total peripheral vascular resistance), Action of substance (anesthetized dogs; 300 µg/kg intra-venous): 42 ± 2 mmHg/ml
TPR (total peripheral vascular resistance), Change (anesthetized dogs; 300 µg/kg intra-venous): 42 ± 6 mmHg/ml
TPR (total peripheral vascular resistance), Duration of action (anesthetized dogs; 300 µg/kg intra-venous): 163 ± 16 min
dp/dtmax (maximum rate of increase in the left ventricular pressure), Action of substance (anesthetized dogs; 300 µg/kg intra-venous): 2133 ± 310 mmHg/s
dp/dtmax (maximum rate of increase in the left ventricular pressure), Change (anesthetized dogs; 300 µg/kg intra-venous): 1547 ± 423 mmHg/s
dp/dtmax (maximum rate of increase in the left ventricular pressure), Duration of action (anesthetized dogs; 300 µg/kg intra-venous): > 197 min
CO, Action of substance (anesthetized dogs; 3000 µg/kg intra-venous): 0.405 ± 0.055 l/M
CO, Change (anesthetized dogs; 3000 µg/kg intra-venous): 0.450 ± 0.025 l/M
CO, Duration of action (anesthetized dogs; 3000 µg/kg intra-venous): > 75 min
HR (heart rate), Action of substance (anesthetized dogs; 3000 µg/kg intra-venous): 182 ± 17 Bts/M
HR (heart rate), Change (anesthetized dogs; 3000 µg/kg intra-venous): 20 ± 17 Bts/M
HR (heart rate), Duration of action (anesthetized dogs; 3000 µg/kg intra-venous): 1.4 ± 0.3 min
LVEDP (left ventricular enddiastolic pressure), Action of substance (anesthetized dogs; 3000 µg/kg intra-venous): 5.6 ± 1 mmHg
LVEDP (left ventricular enddiastolic pressure), Change (anesthetized dogs; 3000 µg/kg intra-venous): 0.6 ± 0.3 mmHg
LVEDP (left ventricular enddiastolic pressure), Duration of action (anesthetized dogs; 3000 µg/kg intra-venous): > 73 min
LVSP (left ventricular systolic blood pressure), Action of substance (anesthetized dogs; 3000 µg/kg intra-venous): 113 ± 3 mmHg
LVSP (left ventricular systolic blood pressure), Change (anesthetized dogs; 3000 µg/kg intra-venous): 48 ± 3 mmHg
LVSP (left ventricular systolic blood pressure), Duration of action (anesthetized dogs; 3000 µg/kg intra-venous): > 74 min
MAP (mean arterial blood pressure), Action of substance (anesthetized dogs; 3000 µg/kg intra-venous): 33 ± 2 mmHg
MAP (mean arterial blood pressure), Change (anesthetized dogs; 3000 µg/kg intra-venous): 67 ± 4 mmHg
MAP (mean arterial blood pressure), Duration of action (anesthetized dogs; 3000 µg/kg intra-venous): > 114 min
PAP, Action of substance (anesthetized dogs; 3000 µg/kg intra-venous): 18.2 ± 7 mmHg
PAP, Change (anesthetized dogs; 3000 µg/kg intra-venous): 2.3 ± 0.8 mmHg
PAP, Duration of action (anesthetized dogs; 3000 µg/kg intra-venous): 2 ± 0.6 min
SV, Action of substance (anesthetized dogs; 3000 µg/kg intra-venous): 3.0 ± 0.6 mL/s
SV, Change (anesthetized dogs; 3000 µg/kg intra-venous): 2.6 ± 0.4 mL/s
SV, Duration of action (anesthetized dogs; 3000 µg/kg intra-venous): > 75 min
TPR (total peripheral vascular resistance), Action of substance (anesthetized dogs; 3000 µg/kg intra-venous): 44 ± 10 mmHg/ml
TPR (total peripheral vascular resistance), Change (anesthetized dogs; 3000 µg/kg intra-venous): 74 ± 6 mmHg/ml
TPR (total peripheral vascular resistance), Duration of action (anesthetized dogs; 3000 µg/kg intra-venous): 24 ± 6 min
dp/dtmax (maximum rate of increase in the left ventricular pressure), Action of substance (anesthetized dogs; 3000 µg/kg intra-venous): 2019 ± 123 mmHg/s
dp/dtmax (maximum rate of increase in the left ventricular pressure), Change (anesthetized dogs; 3000 µg/kg intra-venous): 1828 ± 238 mmHg/s
dp/dtmax (maximum rate of increase in the left ventricular pressure), Duration of action (anesthetized dogs; 3000 µg/kg intra-venous): > 75 min
tolerance (clinical symptoms, fatal consequences) (Mice; mouse, in vivo): without clinical symptoms and without fatal consequences

COc1ccccc1N1CCN(CC(O)CO[C@@H]2CO[C@H]3[C@@H]2OC[C@H]3O[N+](=O)[O-])CC1 (stereo partly drawn) [Example 19, 5-O-<3-[4-(2-Methoxyphenyl)-piperzinyl]-2-hydroxypropyl>-isomannide-2-nitrate]
Number of rats surviving after an acute coronary ligature, 24 hours (rats; [2]): 15/20*
Number of rats surviving after an acute coronary ligature, 7 days (rats; [2]): 15/20*
Number of rats surviving after an acute coronary ligature, 60 minutes (rats; [2]): 15/20*
HR (heart rate), Action of substance after 1 hours (conscious beagle dogs; 5.0 mg/kg peroral): 101 ± 5 Bts/M
HR (heart rate), Action of substance after 2 hours (conscious beagle dogs; 5.0 mg/kg peroral): 90 ± 5 Bts/M
HR (heart rate), Action of substance after 4 hours (conscious beagle dogs; 5.0 mg/kg peroral): 85 ± 5 Bts/M
HR (heart rate), Action of substance after 6 hours (conscious beagle dogs; 5.0 mg/kg peroral): 86 ± 5 Bts/M
SBP (systolic blood pressure), Action of substance after 1 hours (conscious beagle dogs; 5.0 mg/kg peroral): 105 ± 8 mmHg
SBP (systolic blood pressure), Action of substance after 2 hours (conscious beagle dogs; 5.0 mg/kg peroral): 105 ± 5 mmHg
SBP (systolic blood pressure), Action of substance after 4 hours (conscious beagle dogs; 5.0 mg/kg peroral): 118 ± 6 mmHg
SBP (systolic blood pressure), Action of substance after 6 hours (conscious beagle dogs; 5.0 mg/kg peroral): 126 ± 6 mmHg
ED50 (anesthetized rat): 46.7 mg/kg
Duration of action at the ED50 dose (anesthetized rat): 4 h
tolerance (clinical symptoms, fatal consequences) (Mice; 500 mg/kg perorally, mice): without clinical symptoms and without fatal consequences
